Assay results taken from patent US7235379B2, “Method and medium for the detection/identification of microorgranisms with esterase activity” (Bio Merieux, priority 2000, dated 2007).
Structures can show the parent of a compound that is named as a salt. Where two headings read alike, the source gives them in different places.

Tests used:
[1] = system: Salmonella enteritidis 002; assay: Ex.2 colony coloration, 5-bromo-3-indolyl nonanoate, methanol/bile salts, MacConkey; type: cell-based; as to intensity of coloration: key: 0: no activity; 0.1: trace of coloration; 0.5: very pale coloration; 1: distinct coloration of low intensity; 2: clear coloration of medium intensity; 3: intense coloration; 4: very intense coloration
Description: (§4) The esterase substrate tested is 5-bromo-3-indolyl nonanoate. A 25 g/l stock solution of substrate is prepared in methanol to which 5 g/l of bile salts have been added. A sufficient volume is added to a supercooled MacConkey medium (without neutral red) to give a substrate concentration of 500 mg/l.

Serratia marcescens 038 [2] = assay: as above; type: cell-based
Description: as §4

Salmonella spp. 017 = system: Salmonella spp. 017
Description: (§1) The esterase substrate tested is 5-bromo-4-chloro-3-indolyl nonanoate. A 40 g/l stock solution of substrate is prepared in a mixture of 40% dimethyl sulfoxide and 60% Tween 20. A sufficient volume is added to a supercooled MacConkey medium (without neutral red) to give a substrate concentration of 250 mg/l.
(§2) Microorganisms originating from the Applicant's collection were inoculated onto this medium from a 0.5 McFarland suspension by isolation in three quadrants. The dishes were incubated at 37° C. for 48 hours. The colonies formed were examined visually after 24 and 48 hours of incubation. The coloration of these colonies and the intensity of this coloration were noted.
(§3) Note: In the above Examples, the numbers following the strains correspond to the number of each strain referenced in the Applicant's collection. The intensity of coloration corresponds to an arbitrary scale defined as follows: […]

[3] = system: Salmonella paratyphi A 006
Description: as §1, §2, §3

[4] = system: Salmonella enteritidis 002; assay: Ex.1 colony coloration, 5-bromo-3-indolyl nonanoate, DMSO/Tween 20, MacConkey; type: cell-based
Description: (§5) The esterase substrate tested is 5-bromo-3-indolyl nonanoate. A 40 g/l stock solution of substrate is prepared in a mixture of 40% dimethyl sulfoxide and 60% Tween 20. A sufficient volume is added to a supercooled MacConkey medium (without neutral red) to give a substrate concentration of 500 mg/l.

[5] = system: Listeria monocytogenes 023; assay: Ex.3 colony coloration, 5-bromo-4-chloro-3-indolyl nonanoate 250 mg/l, DMSO/Tween 20; type: cell-based; also: key: 0: no activity; 0.1: trace of coloration; 0.5: very pale coloration; 1: distinct coloration of low intensity; 2: clear coloration of medium intensity; 3: intense coloration; 4: very intense coloration
[6] = system: Staphylococcus epidermidis 009; assay: as above; type: cell-based; also: key: 0: no activity; 0.1: trace of coloration; 0.5: very pale coloration; 1: distinct coloration of low intensity; 2: clear coloration of medium intensity; 3: intense coloration; 4: very intense coloration
Serratia marcescens 038 [7] = assay: Ex.1 colony coloration, 5-bromo-3-indolyl nonanoate, DMSO/Tween 20, MacConkey; type: cell-based
Description: as §5

Listeria innocua 029 = assay: Ex.3 colony coloration, 5-bromo-4-chloro-3-indolyl nonanoate 250 mg/l, DMSO/Tween 20; type: cell-based; also: key: 0: no activity; 0.1: trace of coloration; 0.5: very pale coloration; 1: distinct coloration of low intensity; 2: clear coloration of medium intensity; 3: intense coloration; 4: very intense coloration
[8] = system: Acinetobacter calcoaceticus 034; assay: Ex.2 colony coloration, 5-bromo-3-indolyl nonanoate, methanol/bile salts, MacConkey; type: cell-based
Description: as §4

SMILES: CCCCC(CC)CCC(CC(C)C)OS(=O)(=O)O (stereo not shown) [Tergitol 4, 7-ethyl-2-methyl-4-undecanoate hydrogensulfate or its sodium salt]
- color ([1]; 2 ml/l, 24 h): gray
- intensity of coloration ([1]; 2 ml/l, 24 h): 2
- color ([1]; 2 ml/l, 48 h): gray
- intensity of coloration ([1]; 2 ml/l, 48 h): 3
- color ([1]; 4 ml/l, 24 h): gray
- intensity of coloration ([1]; 4 ml/l, 24 h): 3
- color ([1]; 4 ml/l, 48 h): gray
- intensity of coloration ([1]; 4 ml/l, 48 h): 3
- color ([1]; 8 ml/l, 24 h): gray
- intensity of coloration ([1]; 8 ml/l, 24 h): 0.5
- color ([1]; 8 ml/l, 48 h): gray
- intensity of coloration ([1]; 8 ml/l, 48 h): 2
- color ([1]; 16 ml/l, 24 h): gray
- intensity of coloration ([1]; 16 ml/l, 24 h): 0.1
- color ([1]; 16 ml/l, 48 h): gray
- intensity of coloration ([1]; 16 ml/l, 48 h): 1
- color (Serratia marcescens 038 [2]; 2 ml/l, 24 h): gray
- intensity of coloration (Serratia marcescens 038 [2]; 2 ml/l, 24 h): 2
- color (Serratia marcescens 038 [2]; 2 ml/l, 48 h): gray
- intensity of coloration (Serratia marcescens 038 [2]; 2 ml/l, 48 h): 3
- color (Serratia marcescens 038 [2]; 4 ml/l, 24 h): gray
- intensity of coloration (Serratia marcescens 038 [2]; 4 ml/l, 24 h): 2
- color (Serratia marcescens 038 [2]; 4 ml/l, 48 h): gray
- intensity of coloration (Serratia marcescens 038 [2]; 4 ml/l, 48 h): 4
- color (Serratia marcescens 038 [2]; 8 ml/l, 24 h): gray
- intensity of coloration (Serratia marcescens 038 [2]; 8 ml/l, 24 h): 2
- color (Serratia marcescens 038 [2]; 8 ml/l, 48 h): gray
- intensity of coloration (Serratia marcescens 038 [2]; 8 ml/l, 48 h): 4
- color (Serratia marcescens 038 [2]; 16 ml/l, 24 h): gray
- intensity of coloration (Serratia marcescens 038 [2]; 16 ml/l, 24 h): 2
- color (Serratia marcescens 038 [2]; 16 ml/l, 48 h): gray
- intensity of coloration (Serratia marcescens 038 [2]; 16 ml/l, 48 h): 4
- intensity of coloration (Salmonella spp. 017; 0.001 ml/l, 24 h): 2
- intensity of coloration (Salmonella spp. 017; 0.001 ml/l, 48 h): 3
- intensity of coloration (Salmonella spp. 017; 0.01 ml/l, 24 h): 2
- intensity of coloration (Salmonella spp. 017; 0.01 ml/l, 48 h): 3
- intensity of coloration (Salmonella spp. 017; 0.1 ml/l, 24 h): 2
- intensity of coloration (Salmonella spp. 017; 0.1 ml/l, 48 h): 3
- intensity of coloration (Salmonella spp. 017; 1 ml/l (1st col), 24 h): 2
- intensity of coloration (Salmonella spp. 017; 1 ml/l (1st col), 48 h): 3
- intensity of coloration (Salmonella spp. 017; 1 ml/l (2nd col), 24 h): 2
- intensity of coloration (Salmonella spp. 017; 1 ml/l (2nd col), 48 h): 3
- intensity of coloration ([3]; 0.001 ml/l, 24 h): 0.1
- intensity of coloration ([3]; 0.001 ml/l, 48 h): 0.5
- intensity of coloration ([3]; 0.01 ml/l, 24 h): 0.1
- intensity of coloration ([3]; 0.01 ml/l, 48 h): 1
- intensity of coloration ([3]; 0.1 ml/l, 24 h): 0.1
- intensity of coloration ([3]; 0.1 ml/l, 48 h): 0.5
- intensity of coloration ([3]; 1 ml/l (1st col), 24 h): 0.5
- intensity of coloration ([3]; 1 ml/l (1st col), 48 h): 2
- intensity of coloration ([3]; 1 ml/l (2nd col), 24 h): 0.5
- intensity of coloration ([3]; 1 ml/l (2nd col), 48 h): 2
- color ([4]; 2 ml/l, 24 h): gray
- intensity of coloration ([4]; 2 ml/l, 24 h): 2
- color ([4]; 2 ml/l, 48 h): gray
- intensity of coloration ([4]; 2 ml/l, 48 h): 2
- color ([4]; 4 ml/l, 24 h): gray
- intensity of coloration ([4]; 4 ml/l, 24 h): 3
- color ([4]; 4 ml/l, 48 h): gray
- intensity of coloration ([4]; 4 ml/l, 48 h): 3
- color ([4]; 8 ml/l, 24 h): gray
- intensity of coloration ([4]; 8 ml/l, 24 h): 3.5
- color ([4]; 8 ml/l, 48 h): gray
- intensity of coloration ([4]; 8 ml/l, 48 h): 3.5
- color ([4]; 16 ml/l, 24 h): gray
- intensity of coloration ([4]; 16 ml/l, 24 h): 3.5
- color ([4]; 16 ml/l, 48 h): gray
- intensity of coloration ([4]; 16 ml/l, 48 h): 3.5
- intensity of coloration ([5]; 0.001 ml/l, 24 h): 2
- intensity of coloration ([5]; 0.001 ml/l, 48 h): 2
- intensity of coloration ([5]; 0.01 ml/l, 24 h): 2.5
- intensity of coloration ([5]; 0.01 ml/l, 48 h): 3
- intensity of coloration ([5]; 0.1 ml/l, 24 h): 2
- intensity of coloration ([5]; 0.1 ml/l, 48 h): 3
- intensity of coloration ([5]; 1 ml/l (1st col), 24 h): 2
- intensity of coloration ([5]; 1 ml/l (1st col), 48 h): 3
- intensity of coloration ([5]; 1 ml/l (2nd col), 24 h): 2
- intensity of coloration ([5]; 1 ml/l (2nd col), 48 h): 3
- intensity of coloration ([6]; 0.001 ml/l, 24 h): 2
- intensity of coloration ([6]; 0.001 ml/l, 48 h): 2
- intensity of coloration ([6]; 0.01 ml/l, 24 h): 3
- intensity of coloration ([6]; 0.01 ml/l, 48 h): 3
- intensity of coloration ([6]; 0.1 ml/l, 24 h): 2
- intensity of coloration ([6]; 0.1 ml/l, 48 h): 3
- intensity of coloration ([6]; 1 ml/l (1st col), 24 h): 2
- intensity of coloration ([6]; 1 ml/l (1st col), 48 h): 2
- intensity of coloration ([6]; 1 ml/l (2nd col), 24 h): 0.5
- intensity of coloration ([6]; 1 ml/l (2nd col), 48 h): 3
- color (Serratia marcescens 038 [7]; 2 ml/l, 24 h): gray
- intensity of coloration (Serratia marcescens 038 [7]; 2 ml/l, 24 h): 2
- color (Serratia marcescens 038 [7]; 2 ml/l, 48 h): gray
- intensity of coloration (Serratia marcescens 038 [7]; 2 ml/l, 48 h): 3
- color (Serratia marcescens 038 [7]; 4 ml/l, 24 h): gray
- intensity of coloration (Serratia marcescens 038 [7]; 4 ml/l, 24 h): 2
- color (Serratia marcescens 038 [7]; 4 ml/l, 48 h): gray
- intensity of coloration (Serratia marcescens 038 [7]; 4 ml/l, 48 h): 4
- color (Serratia marcescens 038 [7]; 8 ml/l, 24 h): gray
- intensity of coloration (Serratia marcescens 038 [7]; 8 ml/l, 24 h): 2
- color (Serratia marcescens 038 [7]; 8 ml/l, 48 h): gray
- intensity of coloration (Serratia marcescens 038 [7]; 8 ml/l, 48 h): 4
- color (Serratia marcescens 038 [7]; 16 ml/l, 24 h): gray
- intensity of coloration (Serratia marcescens 038 [7]; 16 ml/l, 24 h): 2
- color (Serratia marcescens 038 [7]; 16 ml/l, 48 h): gray
- intensity of coloration (Serratia marcescens 038 [7]; 16 ml/l, 48 h): 4
- intensity of coloration (Listeria innocua 029; 0.001 ml/l, 24 h): 0.1
- intensity of coloration (Listeria innocua 029; 0.001 ml/l, 48 h): 2
- intensity of coloration (Listeria innocua 029; 0.01 ml/l, 24 h): 0.1
- intensity of coloration (Listeria innocua 029; 0.01 ml/l, 48 h): 2
- intensity of coloration (Listeria innocua 029; 0.1 ml/l, 24 h): 0.1
- intensity of coloration (Listeria innocua 029; 0.1 ml/l, 48 h): 2
- intensity of coloration (Listeria innocua 029; 1 ml/l (1st col), 24 h): 0.1
- intensity of coloration (Listeria innocua 029; 1 ml/l (1st col), 48 h): 2
- intensity of coloration (Listeria innocua 029; 1 ml/l (2nd col), 24 h): 0.1
- intensity of coloration (Listeria innocua 029; 1 ml/l (2nd col), 48 h): 2
- color ([8]; 2 ml/l, 24 h): gray
- intensity of coloration ([8]; 2 ml/l, 24 h): 2
- color ([8]; 2 ml/l, 48 h): gray
- intensity of coloration ([8]; 2 ml/l, 48 h): 3
- color ([8]; 4 ml/l, 24 h): gray
- intensity of coloration ([8]; 4 ml/l, 24 h): 3
- color ([8]; 4 ml/l, 48 h): gray
- intensity of coloration ([8]; 4 ml/l, 48 h): 3
- color ([8]; 8 ml/l, 24 h): gray
- intensity of coloration ([8]; 8 ml/l, 24 h): 3
- color ([8]; 8 ml/l, 48 h): gray
- intensity of coloration ([8]; 8 ml/l, 48 h): 4
- color ([8]; 16 ml/l, 24 h): gray
- intensity of coloration ([8]; 16 ml/l, 24 h): 0.5
- color ([8]; 16 ml/l, 48 h): gray
- intensity of coloration ([8]; 16 ml/l, 48 h): 0.5
